Assays:
Format in all cases: functional
Conditions in all cases: read-out: Activity
CCRF-CEM = assay: Growth inhibition of human CCRF-CEM cells assessed as cell growth at 10 uM incubated for 48 hrs by sulforhodamine B assay relative to control
K562 = assay: Growth inhibition of human K562 cells assessed as cell growth at 10 uM incubated for 48 hrs by sulforhodamine B assay relative to control
MOLT-4 = assay: Growth inhibition of human MOLT-4 cells assessed as cell growth at 10 uM incubated for 48 hrs by sulforhodamine B assay relative to control
RPMI-8226 = assay: Growth inhibition of human RPMI-8226 cells assessed as cell growth at 10 uM incubated for 48 hrs by sulforhodamine B assay relative to control
SR = assay: Growth inhibition of human SR cells assessed as cell growth at 10 uM incubated for 48 hrs by sulforhodamine B assay relative to control
EKVX = assay: Growth inhibition of human EKVX cells assessed as cell growth at 10 uM incubated for 48 hrs by sulforhodamine B assay relative to control
HOP-62 = assay: Growth inhibition of human HOP-62 cells assessed as cell growth at 10 uM incubated for 48 hrs by sulforhodamine B assay relative to control
NCI-H226 = assay: Growth inhibition of human NCI-H226 cells assessed as cell growth at 10 uM incubated for 48 hrs by sulforhodamine B assay relative to control
NCI-H23 = assay: Growth inhibition of human NCI-H23 cells assessed as cell growth at 10 uM incubated for 48 hrs by sulforhodamine B assay relative to control
COLO 205 = assay: Growth inhibition of human COLO 205 cells assessed as cell growth at 10 uM incubated for 48 hrs by sulforhodamine B assay relative to control
HCT-116 = assay: Growth inhibition of human HCT-116 cells assessed as cell growth at 10 uM incubated for 48 hrs by sulforhodamine B assay relative to control
HCT-15 = assay: Growth inhibition of human HCT-15 cells assessed as cell growth at 10 uM incubated for 48 hrs by sulforhodamine B assay relative to control
HT-29 = assay: Growth inhibition of human HT-29 cells assessed as cell growth at 10 uM incubated for 48 hrs by sulforhodamine B assay relative to control
KM12 = assay: Growth inhibition of human KM12 cells assessed as cell growth at 10 uM incubated for 48 hrs by sulforhodamine B assay relative to control
SW-620 = assay: Growth inhibition of human SW-620 cells assessed as cell growth at 10 uM incubated for 48 hrs by sulforhodamine B assay relative to control
SF-268 = assay: Growth inhibition of human SF-268 cells assessed as cell growth at 10 uM incubated for 48 hrs by sulforhodamine B assay relative to control
SNB-19 = assay: Growth inhibition of human SNB-19 cells assessed as cell growth at 10 uM incubated for 48 hrs by sulforhodamine B assay relative to control
U-251 = assay: Growth inhibition of human U-251 cells assessed as cell growth at 10 uM incubated for 48 hrs by sulforhodamine B assay relative to control
LOX IMVI = assay: Growth inhibition of human LOX IMVI cells assessed as cell growth at 10 uM incubated for 48 hrs by sulforhodamine B assay relative to control
Malme-3M = assay: Growth inhibition of human Malme-3M cells assessed as cell growth at 10 uM incubated for 48 hrs by sulforhodamine B assay relative to control
M14 = assay: Growth inhibition of human M14 cells assessed as cell growth at 10 uM incubated for 48 hrs by sulforhodamine B assay relative to control
MDA-MB-435 = assay: Growth inhibition of human MDA-MB-435 cells assessed as cell growth at 10 uM incubated for 48 hrs by sulforhodamine B assay relative to control
SK-MEL-2 = assay: Growth inhibition of human SK-MEL-2 cells assessed as cell growth at 10 uM incubated for 48 hrs by sulforhodamine B assay relative to control
SK-MEL-28 = assay: Growth inhibition of human SK-MEL-28 cells assessed as cell growth at 10 uM incubated for 48 hrs by sulforhodamine B assay relative to control
SK-MEL-5 = assay: Growth inhibition of human SK-MEL-5 cells assessed as cell growth at 10 uM incubated for 48 hrs by sulforhodamine B assay relative to control
UACC-257 = assay: Growth inhibition of human UACC-257 cells assessed as cell growth at 10 uM incubated for 48 hrs by sulforhodamine B assay relative to control
UACC-62 = assay: Growth inhibition of human UACC-62 cells assessed as cell growth at 10 uM incubated for 48 hrs by sulforhodamine B assay relative to control
OVCAR-3 = assay: Growth inhibition of human OVCAR-3 cells assessed as cell growth at 10 uM incubated for 48 hrs by sulforhodamine B assay relative to control
OVCAR-5 = assay: Growth inhibition of human OVCAR-5 cells assessed as cell growth at 10 uM incubated for 48 hrs by sulforhodamine B assay relative to control
OVCAR-8 = assay: Growth inhibition of human OVCAR-8 cells assessed as cell growth at 10 uM incubated for 48 hrs by sulforhodamine B assay relative to control
SK-OV-3 = assay: Growth inhibition of human SK-OV-3 cells assessed as cell growth at 10 uM incubated for 48 hrs by sulforhodamine B assay relative to control
786-0 = assay: Growth inhibition of human 786-0 cells assessed as cell growth at 10 uM incubated for 48 hrs by sulforhodamine B assay relative to control
ACHN = assay: Growth inhibition of human ACHN cells assessed as cell growth at 10 uM incubated for 48 hrs by sulforhodamine B assay relative to control
RXF 393 = assay: Growth inhibition of human RXF 393 cells assessed as cell growth at 10 uM incubated for 48 hrs by sulforhodamine B assay relative to control
UO-31 = assay: Growth inhibition of human UO-31 cells assessed as cell growth at 10 uM incubated for 48 hrs by sulforhodamine B assay relative to control
PC-3 = assay: Growth inhibition of human PC-3 cells assessed as cell growth at 10 uM incubated for 48 hrs by sulforhodamine B assay relative to control
DU-145 = assay: Growth inhibition of human DU-145 cells assessed as cell growth at 10 uM incubated for 48 hrs by sulforhodamine B assay relative to control
MDA-MB-231 = assay: Growth inhibition of human MDA-MB-231 cells assessed as cell growth at 10 uM incubated for 48 hrs by sulforhodamine B assay relative to control
MDA-MB-468 = assay: Growth inhibition of human MDA-MB-468 cells assessed as cell growth at 10 uM incubated for 48 hrs by sulforhodamine B assay relative to control

| SMILES | growth at 10 µM (CCRF-CEM) [%] | growth at 10 µM (K562) [%] | growth at 10 µM (MOLT-4) [%] | growth at 10 µM (RPMI-8226) [%] | growth at 10 µM (SR) [%] | growth at 10 µM (EKVX) [%] | growth at 10 µM (HOP-62) [%] | growth at 10 µM (NCI-H226) [%] | growth at 10 µM (NCI-H23) [%] | growth at 10 µM (COLO 205) [%] | growth at 10 µM (HCT-116) [%] | growth at 10 µM (HCT-15) [%] | growth at 10 µM (HT-29) [%] | growth at 10 µM (KM12) [%] | growth at 10 µM (SW-620) [%] | growth at 10 µM (SF-268) [%] | growth at 10 µM (SNB-19) [%] | growth at 10 µM (U-251) [%] | growth at 10 µM (LOX IMVI) [%] | growth at 10 µM (Malme-3M) [%] | also measured |
| --- | --- | --- | --- | --- | --- | --- | --- | --- | --- | --- | --- | --- | --- | --- | --- | --- | --- | --- | --- | --- | --- |
| CC(=O)Nc1cccc(NC(=O)c2ccc(C(=O)Nc3cc(CCl)cc(NC(C)=O)c3)cc2)c1 | 90.8 | 104 | 93.3 | 98.8 | 103 | 114 | 112 | 101 | 107 | 108 | 116 | 109 | 111 | 118 | 114 | 115 | 104 | 113 | 110 | 99.6 | growth at 10 µM (M14): 104%; growth at 10 µM (MDA-MB-435): 108%; growth at 10 µM (SK-MEL-2): 100%; growth at 10 µM (SK-MEL-28): 115%; growth at 10 µM (SK-MEL-5): 102%; growth at 10 µM (UACC-257): 106%; growth at 10 µM (UACC-62): 98.3%; growth at 10 µM (OVCAR-3): 128%; growth at 10 µM (OVCAR-5): 112%; growth at 10 µM (OVCAR-8): 108%; growth at 10 µM (SK-OV-3): 113%; growth at 10 µM (786-0): 112%; growth at 10 µM (ACHN): 109%; growth at 10 µM (RXF 393): 114%; growth at 10 µM (UO-31): 104%; growth at 10 µM (PC-3): 95.2%; growth at 10 µM (DU-145): 119%; growth at 10 µM (MDA-MB-231): 115%; growth at 10 µM (MDA-MB-468): 82.2% |
| CC(=O)Nc1ccc(C(=O)Nc2cc(CO)cc(NC(C)=O)c2)cc1 | 82.2 | 99.5 | 96 | 96.6 | 92.1 | 112 | 106 | 99.9 | 107 | 118 | 106 | 106 | 106 | 115 | 118 | 108 | 100 | 110 | 105 | 115 | growth at 10 µM (M14): 98.3%; growth at 10 µM (MDA-MB-435): 108%; growth at 10 µM (SK-MEL-2): 96.3%; growth at 10 µM (SK-MEL-28): 116%; growth at 10 µM (SK-MEL-5): 98.8%; growth at 10 µM (UACC-257): 107%; growth at 10 µM (UACC-62): 101%; growth at 10 µM (OVCAR-3): 123%; growth at 10 µM (OVCAR-5): 105%; growth at 10 µM (OVCAR-8): 109%; growth at 10 µM (SK-OV-3): 105%; growth at 10 µM (786-0): 99.4%; growth at 10 µM (ACHN): 108%; growth at 10 µM (RXF 393): 112%; growth at 10 µM (UO-31): 101%; growth at 10 µM (PC-3): 104%; growth at 10 µM (DU-145): 108%; growth at 10 µM (MDA-MB-231): 115%; growth at 10 µM (MDA-MB-468): 97% |
| CC(=O)Nc1cc(CO)cc(NC(=O)c2ccc(C(=O)NCCCN(C)C)cc2)c1 | 90 | 104 | 95.4 | 98.2 | 91.7 | 108 | 110 | 92 | 104 | 114 | 104 | 106 | 100 | 118 | 107 | 114 | 101 | 107 | 97.4 | 100 | growth at 10 µM (M14): 98.6%; growth at 10 µM (MDA-MB-435): 103%; growth at 10 µM (SK-MEL-2): 92.9%; growth at 10 µM (SK-MEL-28): 108%; growth at 10 µM (SK-MEL-5): 96.4%; growth at 10 µM (UACC-257): 107%; growth at 10 µM (UACC-62): 95.9%; growth at 10 µM (OVCAR-3): 129%; growth at 10 µM (OVCAR-5): 107%; growth at 10 µM (OVCAR-8): 108%; growth at 10 µM (SK-OV-3): 106%; growth at 10 µM (786-0): 102%; growth at 10 µM (ACHN): 108%; growth at 10 µM (RXF 393): 116%; growth at 10 µM (UO-31): 98.1%; growth at 10 µM (PC-3): 97.9%; growth at 10 µM (DU-145): 115%; growth at 10 µM (MDA-MB-231): 105%; growth at 10 µM (MDA-MB-468): 91.2% |

Source: ChEMBL document CHEMBL4715697, “Synthesis and biological activity of benzamide DNA minor groove binders” (2016)
